Patent US20240358015A1, “HERBICIDAL COMPOSITIONS” (Agrematch Ltd., priority 2021, published 2024)

Tested on: Amaranthus palmeri
Test: Net-house post-emergence assay (Example 6)
Type: in vivo
Settings: 750 g/ha, 0.05% MIPA
Procedure: Post-emergence herbicidal activity was tested on Amaranthus palmeri weeds species that were grown in a net-house. Average daily minimum and maximum temperatures during the assay were 20.5° C./[…], respectively. Leaf stage at the time of application was 3-4. In each treatment, 3 flowerpots (7 cm×7 cm×6 cm) containing about 3-6 plants, were sprayed using a VL-SET Paasche Airbrush with a […] 0.75 mg/ml of the tested compound, which is equivalent to 750 g/ha.
Damage assessment: Herbicidal activity was assessed and scored 1-12 days after application by visual inspection of the plants in comparison to plants treated with the formulation alone (with no active ingredient) as control. Activity score is in the range of 0 to 100, where 0 represents no herbicidal activity like control plants and 100 represents the maximal herbicidal activity (i.e., total death of the plant).

With O=C(O)c1cc(O)c2c(c1)C(=O)c1cccc(O)c1C2=O [Compound 1, Rhein] the Herbicidal activity score (2% Hasten, 0.05% Break-Thru, 1 DAT) was 95, the Herbicidal activity score (2% Hasten, 0.05% Break-Thru, 3 DAT) was 95 and the Herbicidal activity score (2% Hasten, 0.05% Break-Thru, 5 DAT) was 90. The Herbicidal activity score (2% Hasten, 0.05% Break-Thru, 7 DAT) was 90, the Herbicidal activity score (2% Hasten, 0.05% Break-Thru, 12 DAT) was 80 and the Herbicidal activity score (2% TWEEN20, 0.05% Break-Thru, 1 DAT, scale 0-100) was 95. It also gave a Herbicidal activity score (2% TWEEN20, 0.05% Break-Thru, 3 DAT) of 100, a Herbicidal activity score (2% TWEEN20, 0.05% Break-Thru, 5 DAT) of 100 and a Herbicidal activity score (2% TWEEN20, 0.05% Break-Thru, 7 DAT) of 100. The Herbicidal activity score (2% TWEEN20, 0.05% Break-Thru, 12 DAT) was 100.
